We go through 33 molecules from patent publication US8673929B2, “4,6-di- and 2,4,6-trisubstituted quinazoline derivatives and pharmaceutical compositions useful for treating viral infections” (priority 2006, dated 2014).

A short description of data set [1]: CC50 assay in the anti-HCV replicon assay (CellTiter-Glo). The data set is classed as cell-based, human. As to conditions: human, Huh-7 hepatoma cells harbouring an HCV replicon; Huh-7 HCV replicon cells, 3 days incubation, CellTiter-Glo luminescence. The procedure: (§1) The anti HCV activity of the quinazoline derivatives of this invention was tested in a human hepatoma Huh-7 cell line harbouring a HCV replicon. The assay comprised the following steps:
(§2) Step 1: compound preparation and serial dilution • 1. for water soluble quinazoline derivatives, a volume of 500 μL of solution in cell media (DMEM, 10% FBS, P/S, L-Glutamine) was prepared with a concentration being twice the concentration of the starting final serial dilution concentration. A volume of 150 μL of the solution was added to the pre-specified wells in column 1 of a 96-well cell culture plate (PerkinElmer, white plate, cat. #6005181, for EC50 assay; black plate, cat. #6005182 for CC50 assay). The rest of the plate, columns 2-12, was filled with 100 μL of cell media. The plate was then placed on a Precision 2000 Workstation to start the serial dilution. Compounds were diluted three times each step from column 1 to column 10. Column 11 was used as a blank control (no compound added). • 2. for quinazoline derivatives requiring DMSO to dissolve, serial dilution is performed in 50% DMSO in a 384-well plate. A solution containing a compound at 100-fold concentration of the starting final serial dilution concentration was prepared in 50% DMSO and added to the pre-specified wells in column 1 of a polypropylene 384-well plate. The plate was then placed on a Precision 2000 Workstation to start the serial dilution. After the serial dilution, a volume of 2 μL of the solution was transferred from the 384-well plate to a 96-well cell culture plate containing 100 μL of cell media on a Biomek FX Workstation. The DMSO concentration in the final assay condition was 0.5% after cells are added to the plate and the total volume in each well is brought to 200 μL.
(§3) Step 2: to each well of the serial dilution plate prepared above, 100 μL of cell media containing 6000 suspended Huh-7 HCV replicon cells was added with a Multidrop workstation. The plates were incubated for 3 days at 37° C. with 5% CO2.
(§4) Step 3: detection: • a) for the EC50 assay, the media in a 96-well cell culture plate was aspirated with a Biotek EL405 plate-washer. A volume of 200 μL of a solution containing a 1:1 mixture of cell-lysis buffer (Promega, Luciferase Cell Culture Lysis 5× Reagent, cat. #E1531) and luciferase substrate solution (Promega, Luciferase Assay, cat.# E4550) was added to each well of the plate with Multidrop. The plate was incubated for 30 minutes at room temperature before the luminescence signal was measured with a TopCount plate-reader. • b) for the CC50 assay, a volume of 100 μL of pre-mixed CellTiter-Glo (Promega, cat.# G7572) solution is added directly to the cell culture in each well of the plate and the luminescence signal is measured with a TopCount plate-reader after 10 minutes of incubation at room temperature.
(§5) Results in the table below are expressed by the following data: • the 50% cytostatic concentration (CC50), i.e. the concentration that results in 50% inhibition of cell growth, and • the 50% effective concentration (EC50), i.e. the concentration that […].

The next data set deals with HCV replicon. The data set is described as follows: Anti-HCV replicon assay, EC50 (luciferase readout). The data set is classed as cell-based. Conditions: Hepatitis C virus, 72 h; Huh-7 HCV replicon cells, 3 days incubation, luciferase luminescence. The procedure: as §1, §2, §3, §4, §5

In data set [1], `COCCOc1nc(N)nc2ccc(-c3cccs3)cc12` [Example 58, 4-(2-Methoxy-ethoxy)-6-thiophen-2-yl-quinazolin-2-ylamine] registered a 50% cytotoxic concentration (CC50) at 3 days greater than 20 µM. For the same molecule, the EC50 with HCV replicon lay within 1 to 10 µM.

Turning to `CNC(=O)c1ccc(-c2ccc3nc(N)nc(OCCOC)c3c2)cc1` [Example 59, 4-(2-Amino-4-(2-methoxy-ethoxy)-quinazolin-6-yl)-N-methyl-benzamide], the CC50 at 3 days in data set [1] was greater than 20 µM. The molecule also gave an EC50 with HCV replicon of 1 to 10 µM.

On to `COCCOc1nc(N)nc2ccc(-c3ccco3)cc12` [Example 60, 4-(2-Methoxy-ethoxy)-6-furan-2-yl-quinazolin-2-ylamine], for which the half-maximal cytotoxic concentration (CC50) at 3 days in data set [1] is greater than 20 µM. In the data set on HCV replicon, this molecule had an EC50 of 1 to 10 µM.

For the molecule `COCCOc1nc(N)nc2ccc(-c3ccsc3)cc12` [Example 61, 4-(2-Methoxy-ethoxy)-6-thiophen-3-yl-quinazolin-2-ylamine], the 50% cytotoxic concentration (CC50) at 3 days in data set [1] is greater than 20 µM. This molecule returned an EC50 in the data set on HCV replicon of 1 to 10 µM.

Take `COCCOc1nc(N)nc2ccc(-c3ccc(F)c(F)c3)cc12` [Example 62, 6-(3,4-Difluoro-phenyl)-4-(2-methoxy-ethoxy)-quinazolin-2-ylamine]: the CC50 at 3 days in data set [1] is 10 to 20 µM. Moreover, the EC50 with HCV replicon lay within 1 to 10 µM.

For `COCCOc1nc(N)nc2ccc(-c3cccc(C#N)c3)cc12` [Example 63, 3-(2-Amino-4-(2-methoxy-ethoxy)-quinazolin-6-yl)-benzonitrile], in data set [1], the CC50 at 3 days was greater than 20 µM. Moreover, the concentration for a half-maximal effect (EC50) in the data set on HCV replicon is 1 to 10 µM.

In the case of `COCCOc1nc(N)nc2ccc(-c3cn[nH]c3)cc12` [Example 64, 4-(2-Methoxy-ethoxy)-6-(2H-pyrazol-4-yl)-quinazolin-2-ylamine], the CC50 at 3 days in data set [1] was greater than 20 µM. The EC50 in the data set on HCV replicon lay within 1 to 10 µM.

Turning to `COCCOc1nc(N)nc2ccc(-c3ccc(N)cc3)cc12` [Example 65, 6-(4-Amino-phenyl)-4-(2-methoxy-ethoxy)-quinazolin-2-ylamine], in data set [1], the CC50 at 3 days is greater than 20 µM. The molecule also came in with an EC50 in the data set with HCV replicon of 1 to 10 µM.

`COCCOc1nc(N)nc2ccc(-c3ccc(F)c(F)c3F)cc12` [Example 66, 4-(2-Methoxy-ethoxy)-6-(2,3,4-trifluoro-phenyl)-quinazolin-2-ylamine]: the cytotoxic concentration (CC50) at 3 days in data set [1] was greater than 20 µM. This molecule also showed an EC50 in the data set on HCV replicon of 1 to 10 µM.

As for `COCCOc1nc(N)nc2ccc(-c3ccc(F)cc3C)cc12` [Example 67, 6-(4-Fluoro-2-methyl-phenyl)-4-(2-methoxy-ethoxy)-quinazolin-2-ylamine], the CC50 at 3 days in data set [1] was in the range of 10 to 20 µM. The molecule also yielded an EC50 in the data set with HCV replicon of 1 to 10 µM.

`COCCOc1nc(N)nc2ccc(-c3ccc(O)cc3)cc12` [Example 68, 4-[2-Amino-4-(2-methoxy-ethoxy)-quinazolin-6-yl]-phenol] gave a CC50 at 3 days in data set [1] of 10 to 20 µM. The concentration for a half-maximal effect (EC50) with HCV replicon lay in the range of 0.3 to 1 µM.

In data set [1], `COCCOc1nc(N)nc2ccc(-c3ccc(Cl)c(C(F)(F)F)c3)cc12` [Example 69, 6-(4-Chloro-3-trifluoromethyl-phenyl)-4-(2-methoxy-ethoxy)-quinazolin-2-ylamine] came in with a CC50 at 3 days greater than 20 µM. Moreover, the EC50 in the data set with HCV replicon lay in the range of 1 to 10 µM.

`Nc1nc(OCc2ccccc2)c2cc(-c3ccn[nH]3)ccc2n1` [Example 70, 4-Benzyloxy-6-(2H-pyrazol-3-yl)-quinazolin-2-ylamine] gave a CC50 at 3 days in data set [1] of 10 to 20 µM. The same molecule yielded an EC50 in the data set with HCV replicon of 1 to 10 µM.

In data set [1], `CNC(=O)c1ccc(-c2ccc3nc(N)nc(OCc4ccccc4)c3c2)cc1` [Example 71, 4-(2-Amino-4-benzyloxy-quinazolin-6-yl)-N-methyl-benzamide] had a 50% cytotoxic concentration (CC50) at 3 days greater than 20 µM. The same molecule came in with an EC50 in the data set on HCV replicon of 0.3 to 1 µM.

Take `Nc1nc(OCc2ccccc2)c2cc(-c3cn[nH]c3)ccc2n1` [Example 72, 4-benzyloxy-6-(1H-pyrazol-4-yl)-quinazolin-2-ylamine]: the 50% cytotoxic concentration (CC50) at 3 days in data set [1] is greater than 20 µM. Further, in the data set on HCV replicon, the EC50 is 1 to 10 µM.

`CN(C)CCOCCOc1nc(N)nc2ccc(-c3ccc(OC(F)(F)F)cc3)cc12` [Example 73, 4-[2-(2-Dimethylamino-ethoxy)-ethoxy]-6-(4-trifluoromethoxy-phenyl)-quinazolin-2-ylamine]: the CC50 at 3 days in data set [1] lay in the range of 10 to 20 µM. Moreover, the half-maximal effective concentration (EC50) with HCV replicon was in the range of 1 to 10 µM.

As to `CC(C)Oc1nc(N)nc2ccc(-c3ccc(F)cc3F)cc12` [Example 74, 6-(2,4-Difluoro-phenyl)-4-isopropoxy-quinazolin-2-ylamine], the CC50 at 3 days in data set [1] was in the range of 10 to 20 µM. The same molecule registered an EC50 in the data set on HCV replicon of 1 to 10 µM.

Regarding `CC(C)Oc1nc(N)nc2ccc(-c3cccc(F)c3F)cc12` [Example 75], the CC50 at 3 days in data set [1] is greater than 20 µM. Moreover, in the data set on HCV replicon, the EC50 was in the range of 0.3 to 1 µM.

`CC(C)Oc1nc(N)nc2ccc(-c3cccc(C(F)(F)F)c3)cc12` [Example 76, 4-Isopropoxy-6-(3-trifluoromethyl-phenyl)-quinazolin-2-ylamine] yielded a CC50 at 3 days in data set [1] greater than 20 µM. In addition, the EC50 in the data set with HCV replicon lay in the range of 1 to 10 µM.

In data set [1], `CC(C)Oc1nc(N)nc2ccc(-c3ccccc3C(F)(F)F)cc12` [Example 77, 4-Isopropoxy-6-(2-trifluoromethyl-phenyl)-quinazolin-2-ylamine] had a 50% cytotoxic concentration (CC50) at 3 days of 10 to 20 µM. In the data set on HCV replicon, this molecule displayed an EC50 of 1 to 10 µM.

The molecule `CC(C)Oc1nc(N)nc2ccc(-c3ccc(Cl)cc3)cc12` [Example 78, 4-Isopropoxy-6-(4-chloro-phenyl)-quinazolin-2-ylamine] had a 50% cytotoxic concentration (CC50) at 3 days in data set [1] greater than 20 µM. The EC50 with HCV replicon was in the range of 1 to 10 µM.

In the case of `Cc1ccc(-c2ccc3nc(N)nc(OC(C)C)c3c2)cc1` [Example 79, 4-Isopropoxy-6-p-tolyl-quinazolin-2-ylamine], the CC50 at 3 days in data set [1] was greater than 20 µM. In the data set on HCV replicon, the EC50 was 1 to 10 µM.

`CC(C)Oc1nc(N)nc2ccc(-c3ccc(Cl)cc3Cl)cc12` [Example 80, 6-(2,4-Dichloro-phenyl)-4-isopropoxy-quinazolin-2-ylamine] yielded a CC50 at 3 days in data set [1] greater than 20 µM. Further, the EC50 in the data set on HCV replicon was 1 to 10 µM.

On to `CC(C)Oc1nc(N)nc2ccc(-c3ccc(F)cc3Cl)cc12` [Example 81, 6-(2-Chloro-4-fluoro-phenyl)-4-isopropoxy-quinazolin-2-ylamine], for which the CC50 at 3 days in data set [1] lay within 10 to 20 µM. In the data set with HCV replicon, this molecule gave an EC50 of 1 to 10 µM.

`CC(C)Oc1nc(N)nc2ccc(-c3cccc(Cl)c3)cc12` [Example 82, 6-(3-Chloro-phenyl)-4-isopropoxy-quinazolin-2-ylamine]: the CC50 at 3 days in data set [1] was greater than 20 µM. In the data set on HCV replicon, this molecule yielded an EC50 of 1 to 10 µM.

`CC(C)Oc1nc(N)nc2ccc(-c3cc4ccccc4s3)cc12` [Example 83, 6-Benzo[b]thiophen-2-yl-4-isopropoxy-quinazolin-2-ylamine] had a CC50 at 3 days in data set [1] of 10 to 20 µM. Moreover, in the data set with HCV replicon, the EC50 was 1 to 10 µM.

`CC(C)Oc1nc(N)nc2ccc(-c3ccoc3)cc12` [Example 84, 6-Furan-3-yl-4-isopropoxy-quinazolin-2-ylamine] registered a CC50 at 3 days in data set [1] of 10 to 20 µM. Moreover, the EC50 in the data set on HCV replicon lay in the range of 0.3 to 1 µM.

`CC(C)Oc1nc(N)nc2ccc(-c3ccn[nH]3)cc12` [Example 85, 4-Isopropoxy-6-(2H-pyrazol-3-yl)-quinazolin-2-ylamine]: in data set [1], the CC50 at 3 days was greater than 20 µM. The molecule also came in with an EC50 with HCV replicon of 0.3 to 1 µM.

In the case of `CC(C)Oc1nc(N)nc2ccc(-c3cc4ccccc4o3)cc12` [Example 86, 6-Benzofuran-2-yl-4-isopropoxy-quinazolin-2-ylamine], the CC50 at 3 days in data set [1] is greater than 20 µM. Besides, the EC50 in the data set with HCV replicon is 0.3 to 1 µM.

On to `CNC(=O)c1ccc(-c2ccc3nc(N)nc(OC(C)C)c3c2)cc1` [Example 87, 4-(2-Amino-4-isopropoxy-quinazolin-6-yl)-N-methyl-benzamide], for which the CC50 at 3 days in data set [1] was in the range of 10 to 20 µM. The molecule also gave a half-maximal effective concentration (EC50) in the data set with HCV replicon of 0.3 to 1 µM.

As for `CC(C)Oc1nc(N)nc2ccc(-c3ccco3)cc12` [Example 88, 6-Furan-2-yl-4-isopropoxy-quinazolin-2-ylamine], in data set [1], the CC50 at 3 days is greater than 20 µM. Further, in the data set with HCV replicon, the EC50 is 1 to 10 µM.

In data set [1], `CC(C)Oc1nc(N)nc2ccc(-c3ccsc3)cc12` [Example 89, 4-Isopropoxy-6-thiophen-3-yl-quinazolin-2-ylamine] came in with a half-maximal cytotoxic concentration (CC50) at 3 days of 10 to 20 µM. This molecule had an EC50 with HCV replicon of 0.3 to 1 µM.

For the molecule `CC(C)Oc1nc(N)nc2ccc(-c3cccnc3)cc12` [Example 90, 4-Isopropoxy-6-pyridin-3-yl-quinazolin-2-ylamine], the 50% cytotoxic concentration (CC50) at 3 days in data set [1] was greater than 20 µM. For the same molecule, the EC50 in the data set with HCV replicon is 0.3 to 1 µM.

As usually defined, the CC50 is the concentration at which the toxic effect on the cells reaches its halfway point. Low readings indicate greater toxicity to the cells, high ones lower toxicity to the cells. One may read the EC50 as the concentration that produces a half-maximal response. Read a low EC50 as greater potency.
